Reference: patent US20090004683A1, “Indicator Agent for Noninflammatory Stress Response and Use Thereof” (priority 2004, published 2009)

Assays:
Brain astrocytes = assay: IL-18 release from astrocytes with paraquat stimulation; assay type: cell-based, mouse; details: astrocytes, 100 nM paraquat 1 hour; SOD 1-20 U/ml or water-soluble vitamin E 100 nM-10 mM/ml
Experimental: Brain astrocytes isolated from the mouse neonatal brain by the method of Yang et al. (Yang P, Hernandez M R. Brain Res Brain Res Protoc. 2003 October; 12(2):67-76) were prepared at 1.5-2.0×10^6/ml. This was cultured in Dulbecco's minimum essential medium containing 100 nM of paraquat, which is an active oxygen generator, for 1 hour, after which the medium was exchanged with a paraquat-free medium. The cells were further cultured for 3 hours, after which the medium was collected, and the concentration of IL-18 protein in the medium was measured.

Brain microglia = assay: IL-18 release from microglia with paraquat stimulation; assay type: cell-based, mouse; details: microglia, 100 nM paraquat 1 hour; SOD 1-20 U/ml or water-soluble vitamin E 100 nM-10 mM/ml
Experimental: Brain microglia isolated from the mouse neonatal brain by the method of Hassan et al. (Hassan N F, Rifat S, Campbell D E, McCawley L J, Douglas S D. J. Leukoc Biol. 1991 July; 50(1):86-92) were cultured at 1.5-2.0×10^6/ml. This was cultured in Dulbecco's minimum essential medium containing 100 nM of paraquat, which is an active oxygen generator, for 1 hour, after which the medium was exchanged with a paraquat-free medium. After further cultivation for 3 hours, the medium was collected, and the concentration of IL-18 protein in the medium was measured.

Abdominal macrophages = assay: IL-18 release from macrophages with paraquat stimulation; assay type: cell-based, mouse; details: 100 nM paraquat 15 minutes, SOD 1-20 U/ml
Experimental: Abdominal macrophages isolated from mice by the method of Hamilton et al. (Hamilton T A, Weiel J E, Adams D O., J. Immunol. 1984 May; 132(5):2285-90) were cultured in Dulbecco's minimum essential medium at 1.0-2.0×10^5/dish. The medium was exchanged with the aforementioned medium containing 100 nM of paraquat, which is an active oxygen generator, and the cells were cultured for 15 minutes, after which the medium was exchanged with a paraquat-free medium, and the cells were further cultured for 3 hours, after which the medium was collected, and the concentration of IL-18 protein in the medium was measured.

[1] = system: Primary culture human skin keratinocytes; assay: IL-18 release from keratinocytes with UV-B ray irradiation; assay type: cell-based; details: 100 mJ UV-B, SOD 1-20 U/ml or water-soluble vitamin E 100 nM-10 mM/ml
Experimental: Primary culture human skin keratinocytes (keratinocytes: purchased from CAMBREX Company) were cultured in a basal medium for keratinocytes contained in petri dishes for cell culture 6 cm in diameter at 1.0-2.0×10^6/dish. This was irradiated with 100 mJ of ultraviolet B rays (UV-B rays), after which the cells were cultured for 1 hour, after which the medium was collected, and the concentration of IL-18 protein in the medium was measured. Also, after the UV-B ray treatment, the cells were cultured in a medium containing SOD (1, 2.5, 5, 10, 20 U/ml), which is an active oxygen eliminator, or water-soluble vitamin E (100 nM, 1, 2.5, 5, 10 mM/ml), and the concentration of IL-18 protein in the medium was measured. In the keratinocytes, the activation and release of IL-18 by the active oxygen molecular species were observed. Furthermore, these were suppressed by SOD, which is an active oxygen eliminator, or by vitamin E, which neutralizes active oxygen, dose-dependently (FIGS. 7C and 7D).

IL-6 = assay: Plasma IL-6 level in stress-loaded wild type mice (ELISA); assay type: in vivo, mouse; details: stress-loaded WT mice; FIG. 5B
Experimental: For restraint stress, each mouse was kept in a restrainer (a round plastic tube 27 mm in diameter) for 1, 3 or 6 hours, and IL-18 levels were measured. Regarding the analysis of IL-6, each mouse was restrained as described above, and then housed in the starting cage for 6 hours, after which a measurement was performed.
After restraint, each mouse was anesthetized with diethyl ether, and blood was drawn into an EDTA-containing tube. Plasma was separated by centrifugation at 4° C. and 10000×g for 10 minutes, and stored at −80° C. IL-18 and IL-6 were analyzed by ELISA using Quantikine™ immunoassay kit (R&D Systems) and OptEIA™ (BD-Pharmingen), respectively.
Using IL-18-deficient mice, the relationship between IL-6, which is another stress-related cytokine, and IL-18, was examined. Without stress, IL-6 was undetectable in WT and IL-18 KO, but after 3 hours of stress loading, the IL-6 level was 230 pg/ml in WT and 25 pg/ml in IL-18 KO (FIG. 5A). After liberation from the stress, plasma IL-6 was kept at about 80 pg/ml in WT, but decreased to 5 pg/ml in IL-18 KO (FIG. 5A). Treatment with YVAD-CHO, SOD and anti-IL-18 antibody 70% inhibited the stress-induced increase in plasma IL-6 level in WT (FIG. 5B).

[2] = system: Primary culture human renal proximal tubular epithelial cells; assay: IL-18 release from renal tubular epithelial cells with paraquat stimulation; assay type: cell-based; details: renal tubular epithelial cells, 100 nM paraquat 15 minutes; SOD 1-20 U/ml or water-soluble vitamin E 100 nM-10 mM/ml
Experimental: Primary culture human renal proximal tubular epithelial cells (purchased from CAMBREX Company) were cultured in a basal medium for renal tubular cells: contents 10 μg/ml hEGF (recombinant human epithelial cell growth factor) 0.5 ml, 5 mg/ml insulin 0.5 ml, 0.5 mg/ml hydrocortisone 0.5 ml, FBS (fetal bovine serum) 2.5 ml, 0.5 mg/ml epinephrine 0.5 ml, 6.5 μg/ml triiodothyronine 0.5 ml, 10 mg/ml transferrin 0.5 ml, 50 mg/ml gentamycin, 50 μg/ml amphotericin-B 0.5 ml), in petri dishes for cell culture 6 cm in diameter at 1.0-2.0×10^6/dish. This was cultured in the aforementioned medium containing 100 nM of paraquat, which is an active oxygen generator, for 15 minutes, after which the medium was exchanged with the same but paraquat-free medium. After the cells were further cultured for 1 hour, the medium was collected, and the concentration of IL-18 protein in the medium was measured.

procaspase-11 = assay: Procaspase-11 protein in the adrenal of restraint stress mice (Western blotting); assay type: in vivo, mouse; details: given i.p. during restraint
Experimental: Each mouse was kept in a restrainer for 1 hour, and Ac-YVAD-CHO (200 μM/50 μl PBS(−)), Z-FA-fmk (100 μM/50 μl PBS(−)) and SB-203580 (100 μg/50 μl PBS(−) per mouse) were administered intraperitoneally. 1 and 3 hours after the start of restraint, SOD-1 (20 U) and DPI (30 μg) were administered intraperitoneally to the mouse, and samples were analyzed by Western blotting.
Western blot analysis of IL-18 and phosphorylated P38MAP kinase in adrenal tissue was performed as described below. The adrenal tissue was homogenized in an immunoprecipitation (IP) buffer solution (50 mM Tris pH 7.4, 150 mM NaCl, 0.5% NP-40 and 0.5% sodium deoxycholate) containing a protease inhibitor mixture (manufactured by Roche Diagnostics) using a Polytron homogenizer. […] The aforementioned membrane was incubated with an antibody (IL-18, phosphorylated (Thr180/Tyr182) P38 MAP kinase, caspase-1 or caspase-11), and the reacted protein was detected using an ECL plus system (manufactured by Amersham biosciences). Procaspase-11 and activated P38 MAP kinase were quantified using a Science Lab 99 image analysis system (manufactured by Fujifilm).

## SOD: superoxide dismutase (SOD)-1 purchased from Sigma; active oxygen eliminator
Brain astrocytes
  activation and release of IL-18 into the medium: suppressed
Brain microglia
  activation and release of IL-18 into the medium: suppressed
Abdominal macrophages
  activation and release of IL-18 into the medium: suppressed
[1]
  activation and release of IL-18 into the medium: suppressed
IL-6
  inhibition of the stress-induced increase in plasma IL-6 level: 70%
[2]
  activation and release of IL-18 into the medium: suppressed
procaspase-11
  stress-induced increase in procaspase-11 protein: reduced
